Reference: patent publication US10293027B2, “Methods for treating metabolic disorders using FGF” (Salk Institute for Biological Studies, priority 2010, dated 2019)

Legend:
[1] = tested on: ob/ob male mice; assay: Daily FGF-1 or rosiglitazone treatment of ob/ob mice: fed blood glucose and body composition (Example 5); assay type: in vivo, mouse; conditions: fed ob/ob male mice, one hour after treatment; FGF-1 0.5 mg/kg/day s.c., TZD 5 mg/kg/day p.o.; about 400 mg/dl before treatment
Protocol: FIGS. 7A-7H. FGF-1 injection studies in rodents. (A) Fed blood glucose in ob/ob male mice treated with FGF-1 (0.5 mg/kg, s.c.), rosiglitazone (TZD, 5 mg/kg, p.o.), or vehicle. FGF-1 was administered once daily, and blood glucose levels were measured at day 0 (basal levels before FGF-1 injection), day 3, and day 6, 1 hour after injection. The values (±SE) shown are the average of the measurements of 5 animals in a group; (B) Sustained glucose lowering effects of FGF-1: Fed blood glucose levels in ob/ob mice at indicated time points after the last FGF-1 injection at day 6. (C-H): 72 hrs after the sixth dose, another dose was given and effects of FGF-1 and TZD on (C) body weight, (D) total body fat, (E) lean weight, (F) weight gain, (G) liver weight, and (H) heart weight were determined.
In Example 5, ob/ob male mice (8 wk old) were randomized into three groups and treated with daily subcutaneous (s.c.) injections of recombinant mouse FGF-1 (0.5 mg/kg in PBS), oral rosiglitazone (TZD, 5 mg/kg in 0.5% carboxymethyl cellulose), or vehicle. Blood glucose levels were measure in fed animals one hour after treatment. Total body composition analysis was performed using an EchoMRI-100™ (Echo Medical Systems, LLC).
Eight-week-old male ob/ob mice were treated with recombinant mouse FGF-1 (0.5 mg/kg/day, s.c. in 250 μl), rosiglitazone (TZD, 5 mg/kg/day, p.o. in 300 μl), or vehicle control (s.c. vehicle control 0.9% NaCl, 250 μl/mouse; p.o. vehicle control 0.5% CMC, 300 μl/mouse). Blood glucose was measured one hour after treatment at day 3 and day 6 using a standard protocol. (FIG. 7A).
Before treatment, all groups were severely hyperglycemic, as indicated by blood glucose levels of about 400 mg/dl. […] At 6 days, blood glucose levels were even further reduced to around 130-140 mg/dl for both groups. After the sixth dose, blood glucose levels were monitored for another 72 hrs. During this period, both FGF-1- and TZD-treated cohorts maintained normoglycemic levels (<140 mg/dl) for at least 48 hrs (FIG. 7B). At 72 hrs after the sixth dose, a final dose was given, and 12 hrs later, a total body composition analysis was performed by MRI followed by necropsy.

[2] = tested on: ob/ob mice; assay: Single s.c. injection of human FGF1 or other FGFs, blood glucose in ob/ob mice (Examples 13, 14); assay type: in vivo, mouse; conditions: 0.5 mg/kg s.c.
Protocol: FIG. 26. Human recombinant FGF-1 is effective in mice.
FIG. 27. Comparison of FGF1, FGF2, FGF9, and FGF10 effects. Single subcutaneous injection of FGFs (0.5 mg/kg) in ob/ob mice.
As human recombinant FGF-1 is already being used in the clinic, the present methods of using it to treat metabolic disorders offer a straightforward regulatory path to treatment.
As explained above, the FGF family of factors bind to members of the FGFR family of receptors with different specificities. FGF-1 binds preferentially to FGFR1 and FGFR4, and can be internalized into a cell expressing these receptors. To determine if other FGF proteins have similar metabolic effects as FGF-1, we tested blood glucose in ob/ob mice treated with FGF-2, FGF-9, and FGF-10 (0.5 mg/kg s.c.). This combination of FGF proteins binds to the spectrum of FGFRs.

| Molecule | blood glucose levels at day three [1] | blood glucose in ob/ob mice after a single s.c. injection [2] | blood glucose in ob/ob mice after a single s.c. injection ([2]; listed as hrFGF-1) |
| --- | --- | --- | --- |
| CN(CCOc1ccc(CC2SC(=O)NC2=O)cc1)c1ccccn1 (centres unmarked) [rosiglitazone, reference compound] | about 200 mg/dl |  |  |
| FGF2: other FGF protein tested for comparison with FGF-1 [reference compound] |  | Only FGF1 has glucose normalizing effects |  |
| human FGF1: human recombinant FGF-1; human protein is 155 amino acids, SwissProt P05230.1 |  | normalizes blood glucose | can effectively reduce glucose levels |
| FGF10: other FGF protein tested for comparison with FGF-1 (protein, UniProt O15520 38-208, looked up) Fibroblast growth factor 10: QALGQDMVSPEATNSSSSSFSSPSSAGRHVRSYNHLQGDVRWRKLFSFTKYFLKIEKNGKVSGTKKENCPYSILEITSVEIGVVAVKAINSNYYLAMNKKGKLYGSKEFNNDCKLKERIEENGYNTYASFNWQHNGRQMYVALNGKGAPRRGQKTRRKNTSAHFLPMVVHS |  | Only FGF1 has glucose normalizing effects |  |
